Values joined by “and” are separate entries in the source; they are usually repeats but may differ in a detail not shown here. Equal entries are not always repeated.
How the values were obtained:
[1] = molecular target: T1, endogenous IKZF3 in Jurkat cells (Homo sapiens, UniProt Q96SW2+Q9UKT9); test: Western blot for endogenous IKZF3; format: cell-based; conditions: 18 h
T1 construct: endogenous in cells; host or cells: Jurkat (transduced with ZF-EGFP constructs, or untransduced)

[2] = molecular target: WNQS mutant ZF degron fused to EGFP (Homo sapiens, UniProt Q96SW2+Q9UKT9, Q147W); test: Ratiometric EGFP:mCherry flow cytometry degradation assay, 18 h
Sequence of WNQS mutant ZF degron fused to EGFP (Q9UKT9 130-189 Q147W): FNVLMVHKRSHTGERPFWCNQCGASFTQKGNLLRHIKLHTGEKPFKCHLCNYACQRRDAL
Sequence of WNQS mutant ZF degron fused to EGFP (Q96SW2 whole entry, the tested form may be a part): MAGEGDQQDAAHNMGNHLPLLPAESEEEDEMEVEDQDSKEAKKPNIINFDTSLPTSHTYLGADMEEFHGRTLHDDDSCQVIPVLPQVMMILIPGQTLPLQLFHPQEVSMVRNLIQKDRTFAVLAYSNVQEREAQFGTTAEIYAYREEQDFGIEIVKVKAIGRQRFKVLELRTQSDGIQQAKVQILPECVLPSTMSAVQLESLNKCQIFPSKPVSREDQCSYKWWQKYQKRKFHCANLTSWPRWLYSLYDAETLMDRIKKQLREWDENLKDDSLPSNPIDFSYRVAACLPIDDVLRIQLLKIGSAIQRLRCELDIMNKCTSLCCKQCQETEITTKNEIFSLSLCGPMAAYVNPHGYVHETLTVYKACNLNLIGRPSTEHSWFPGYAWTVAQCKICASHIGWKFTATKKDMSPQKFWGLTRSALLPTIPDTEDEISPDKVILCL
Sequence of WNQS mutant ZF degron fused to EGFP (Q16531 whole entry partner, the tested form may be a part): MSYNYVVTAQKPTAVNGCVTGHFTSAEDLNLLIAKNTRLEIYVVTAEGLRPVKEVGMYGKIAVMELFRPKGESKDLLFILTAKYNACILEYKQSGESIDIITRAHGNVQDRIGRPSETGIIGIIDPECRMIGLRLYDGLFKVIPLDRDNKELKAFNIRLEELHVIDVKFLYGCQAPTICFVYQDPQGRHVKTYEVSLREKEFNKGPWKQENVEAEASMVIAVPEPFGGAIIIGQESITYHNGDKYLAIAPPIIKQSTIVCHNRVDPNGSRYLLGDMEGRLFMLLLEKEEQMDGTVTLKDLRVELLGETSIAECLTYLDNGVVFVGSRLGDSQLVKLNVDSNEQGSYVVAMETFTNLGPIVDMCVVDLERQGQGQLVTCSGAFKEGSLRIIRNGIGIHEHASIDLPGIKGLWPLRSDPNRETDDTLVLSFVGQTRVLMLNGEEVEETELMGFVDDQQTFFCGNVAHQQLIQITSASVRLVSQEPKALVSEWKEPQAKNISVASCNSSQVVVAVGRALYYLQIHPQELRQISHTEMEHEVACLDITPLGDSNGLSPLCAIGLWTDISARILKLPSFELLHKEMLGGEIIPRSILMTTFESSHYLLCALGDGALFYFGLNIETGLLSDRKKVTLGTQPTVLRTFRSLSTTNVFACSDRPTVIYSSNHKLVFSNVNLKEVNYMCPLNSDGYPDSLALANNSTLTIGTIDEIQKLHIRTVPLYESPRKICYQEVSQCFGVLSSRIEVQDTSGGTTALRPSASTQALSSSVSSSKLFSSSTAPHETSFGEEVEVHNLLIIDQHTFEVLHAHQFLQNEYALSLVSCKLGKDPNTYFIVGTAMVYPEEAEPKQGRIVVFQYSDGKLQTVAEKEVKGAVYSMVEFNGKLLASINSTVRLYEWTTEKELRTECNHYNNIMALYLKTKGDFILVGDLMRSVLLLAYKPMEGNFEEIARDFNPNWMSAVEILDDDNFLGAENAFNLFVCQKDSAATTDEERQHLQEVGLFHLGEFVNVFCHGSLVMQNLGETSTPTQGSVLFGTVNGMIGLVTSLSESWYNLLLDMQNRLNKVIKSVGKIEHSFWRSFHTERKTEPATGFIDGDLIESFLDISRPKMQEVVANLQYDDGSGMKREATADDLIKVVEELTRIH

[3] = molecular target: T2, Q147A mutant degron (ANQS) fused to EGFP (Homo sapiens, UniProt Q96SW2+Q9UKT9, Q147A); test: as above; format: cell-based; conditions: Jurkat, 18 h; Fig 2B; read-out: DMax Q147A/%
T2 construct: pLVX-Sprout-IKZF3 130-189aa Q147A (ANQS); expressed in transfected cells
T2 sequence (Q9UKT9 130-189 Q147A): as the sequence (Q9UKT9 130-189 Q147W) above, with W18A counted along it
T2 sequence (Q96SW2 whole entry, the tested form may be a part): as the sequence (Q96SW2 whole entry, the tested form may be a part) above
T2 sequence (Q16531 whole entry partner, the tested form may be a part): as the sequence (Q16531 whole entry partner, the tested form may be a part) above

Jurkat cells = test: TMTpro quantitative proteomics, 16 h; conditions: Jurkat, 10 μM, 16 h; 9644 quantified proteins
[4] = molecular target: T3, endogenous IKZF1 in Jurkat cells (Homo sapiens, UniProt Q13422+Q96SW2); test: Endogenous IKZF1 immunostaining, fluorescent antibody flow cytometry assay; format: cell-based; conditions: 18 h
T3 construct: endogenous in cells; host or cells: Jurkat (untransduced for immunostaining; WEIS-EGFP-transduced for the blot)
T3 sequence (Q13422 whole entry): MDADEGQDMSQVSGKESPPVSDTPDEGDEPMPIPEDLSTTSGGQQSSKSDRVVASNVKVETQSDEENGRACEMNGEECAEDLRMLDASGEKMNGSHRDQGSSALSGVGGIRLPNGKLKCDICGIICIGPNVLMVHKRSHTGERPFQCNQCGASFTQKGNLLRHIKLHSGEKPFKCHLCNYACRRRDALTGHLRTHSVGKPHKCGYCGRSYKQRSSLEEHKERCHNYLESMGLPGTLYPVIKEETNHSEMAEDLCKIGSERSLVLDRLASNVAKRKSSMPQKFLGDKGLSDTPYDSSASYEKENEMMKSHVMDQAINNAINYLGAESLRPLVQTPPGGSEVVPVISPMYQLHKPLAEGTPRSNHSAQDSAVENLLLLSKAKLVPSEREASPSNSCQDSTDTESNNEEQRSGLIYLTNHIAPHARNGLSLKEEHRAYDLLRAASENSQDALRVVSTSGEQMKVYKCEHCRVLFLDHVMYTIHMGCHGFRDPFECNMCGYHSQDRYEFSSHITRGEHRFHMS
T3 sequence (Q96SW2 whole entry): as the sequence (Q96SW2 whole entry, the tested form may be a part) above
T3 sequence (Q16531 whole entry partner): as the sequence (Q16531 whole entry partner, the tested form may be a part) above
Protocol: As we sought to screen a large number of mutant ZF degrons with different mutation combinations, we pursued a library screen approach similar to that previously employed by Sievers et al. and Jan et al. , Only the most promising compounds from the original set of 36 were used for the library screen. To help narrow the candidates, a subset of compounds was tested for endogenous IKZF1 degradation in Jurkat cells using a fluorescent antibody flow cytometry assay (Figure S5). […] Thalidomide and lenalidomide were also included as controls.
Endogenous IKZF1 Immunostaining
37 °C and 5% CO2. Following incubation, cells were stained with LIVE/DEAD™ Fixable Aqua Dead Cell Stain (Thermo) diluted 1000X in PBS for 30 min at room temperature and then incubated with Human TruStain FcX block (Biolegend) diluted 40X in PBS + 1% FBS (Gibco) for 10 min at room temperature. Intranuclear staining of IKZF1 was carried out using the Transcription Factor Buffer Set (BD Bioscience) according to the manufacturer's protocol and staining with IKZF1 AF488 antibody (clone R32-1149, BD Bioscience) diluted 40X for 30 minutes at room temperature. Cells were acquired on a Cytoflex S (Beckman Coulter) and data analysed using FlowJo 10.8.1 9 (BD).

[5] = test system: library of 8380 IKZF3 degrons fused to EGFP in Jurkat cells; test: Pooled mutant ZF degron library screen (FACS EGFPlow vs EGFP+, NGS), 18 h; format: cell-based, human;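 as to logFC: Log2 fold change of EGFPlow over EGFP+ representation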
[6] = molecular target: T4, WT IKZF3-derived degron fused to EGFP (Homo sapiens, UniProt Q96SW2+Q9UKT9); test: Ratiometric EGFP:mCherry flow cytometry degradation assay, 18 h; format: cell-based; conditions: Jurkat
T4 construct: Plasmid: pLVX-Sprout-IKZF3 130-189aa (WT); expressed in transfected cells
T4 sequence (Q9UKT9 130-189): as the sequence (Q9UKT9 130-189 Q147W) above, with W18Q counted along it
T4 sequence (Q96SW2 whole entry, the tested form may be a part): as the sequence (Q96SW2 whole entry, the tested form may be a part) above
T4 sequence (Q16531 whole entry partner, the tested form may be a part): as the sequence (Q16531 whole entry partner, the tested form may be a part) above

T1 sequence (Q9UKT9 whole entry): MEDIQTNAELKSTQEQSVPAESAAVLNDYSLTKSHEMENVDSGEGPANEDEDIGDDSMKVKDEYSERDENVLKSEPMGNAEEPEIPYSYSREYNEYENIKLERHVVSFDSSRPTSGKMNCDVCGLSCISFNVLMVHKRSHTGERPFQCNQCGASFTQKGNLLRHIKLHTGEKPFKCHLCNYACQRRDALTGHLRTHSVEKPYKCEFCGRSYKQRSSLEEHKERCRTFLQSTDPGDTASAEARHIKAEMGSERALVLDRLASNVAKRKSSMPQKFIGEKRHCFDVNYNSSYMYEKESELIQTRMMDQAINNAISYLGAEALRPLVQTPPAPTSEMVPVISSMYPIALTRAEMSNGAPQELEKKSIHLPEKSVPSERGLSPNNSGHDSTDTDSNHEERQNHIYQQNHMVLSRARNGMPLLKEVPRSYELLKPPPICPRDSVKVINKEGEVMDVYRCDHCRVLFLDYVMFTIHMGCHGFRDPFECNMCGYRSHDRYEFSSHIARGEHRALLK
T1 sequence (Q96SW2 whole entry): as the sequence (Q96SW2 whole entry, the tested form may be a part) above
T1 sequence (Q16531 whole entry partner): as the sequence (Q16531 whole entry partner, the tested form may be a part) above

With `CN1CCN(c2ccc3c(c2)C(=O)N(C2CCC(=O)NC2=O)C3=O)CC1` (stereo not drawn) [Compound 23] the “endogenous IKZF3 levels (Western blot)” value ([1]; transduced Jurkat cells) was “remained unaffected”, the “degradation of endogenous IKZF3 (Western blot)” value ([1]; untransduced Jurkat cells) was “do not induce degradation of endogenous IKZF3” and the “Selectivity (WT/mutant)” value ([2]; DC50(WT)/DC50(WNQS)) was 5. It also gave a DC50 ([2]; WNQS, Jurkat, 18 h) of 126 nM, a pDC50 ([2]; WNQS, Jurkat, 18 h) of 6.90 and a Dmax [3] of 79%. For the same molecule, the “proteins degraded (quantitative proteomics)” value (Jurkat cells) was “no major effect on any of the 9644 quantified proteins”, the “degradation of endogenous IKZF1” value [4] was “did not induce degradation of endogenous IKZF1” and the Log2FC ([5]; WT degron, residues 146/147/149/150/152/153/154/155/167: FQNQGASFL) was -1.4561 and -1.46. For the same molecule, the logFC ([5]; degron residues 146/147/149/150/152/153/154/155/167: FADIGAAFL) was 2.104, the logFC ([5]; degron residues 146/147/149/150/152/153/154/155/167: FADIGACFL) was 0.9928 and the logFC ([5]; degron residues 146/147/149/150/152/153/154/155/167: FADIGADFL) was -0.7621. The logFC ([5]; degron residues 146/147/149/150/152/153/154/155/167: FADIGAEFL) was -0.08962, the Log2FC ([5]; degron residues 146/147/149/150/152/153/154/155/167: FWDIGAAFL (WDIA)) was 4.2601 and 4.26 and the Log2FC ([5]; degron residues 146/147/149/150/152/153/154/155/167: FWDIGANFL) was 4.2762 and 4.276. For the same molecule, the Log2FC ([5]; degron residues 146/147/149/150/152/153/154/155/167: FWDIGASFL) was 4.2199, the Log2FC ([5]; degron residues 146/147/149/150/152/153/154/155/167: FWDVGAAFL) was 4.1742 and the Log2FC ([5]; degron residues 146/147/149/150/152/153/154/155/167: FWDVGAQFL) was 4.2369. The Log2FC ([5]; degron residues 146/147/149/150/152/153/154/155/167: FWDVGASFL) was 4.2017, the Log2FC ([5]; degron residues 146/147/149/150/152/153/154/155/167: FWEIGACFL) was 4.1830 and the Log2FC ([5]; degron residues 146/147/149/150/152/153/154/155/167: FWEIGAHFL) was 4.1861. The Log2FC ([5]; degron residues 146/147/149/150/152/153/154/155/167: FWEIGAKFL (WEIK)) was 4.1692, the Log2FC ([5]; degron residues 146/147/149/150/152/153/154/155/167: FWEIGASFL (WEIS)) was 4.4149 and 4.45 and 4.449 and the Log2FC ([5]; degron residues 146/147/149/150/152/153/154/155/167: FWEQGASFL) was 4.1915. For the same molecule, the Log2FC ([5]; degron residues 146/147/149/150/152/153/154/155/167: FWEVGAQFL) was 4.1344, the Log2FC ([5]; degron residues 146/147/149/150/152/153/154/155/167: FWEVGASFL) was 4.2567 and 4.257 and the Log2FC ([5]; degron residues 146/147/149/150/152/153/154/155/167: FWNIGAQFL (WNIQ)) was 4.2715 and 4.27 and 4.275. It also gave a Log2FC ([5]; degron residues 146/147/149/150/152/153/154/155/167: FWNQGASFL (WNQS)) of 3.90, a Log2FC ([5]; degron residues 146/147/149/150/152/153/154/155/167: FWNVGASFL) of 4.1357 and a Log2FC ([5]; degron residues 146/147/149/150/152/153/154/155/167: FWPVGAQFL) of 4.1974. It also gave a Log2FC ([5]; degron residues 146/147/149/150/152/153/154/155/167: FYEIGASFL) of 4.1371, a Log2FC ([5]; degron residues 146/147/149/150/152/153/154/155/167: FYEVGAEFL) of 4.1417 and a Log2FC ([5]; degron residues 146/147/149/150/152/153/154/155/167: FYEVGASFL) of 4.2356. The “Degradation pDC50 WT” value ([6]; Fig 2B) was 5.96, the DC50 ([6]; WT degron, Fig 5A) was 631 nM and the pDC50 ([6]; WT degron, Fig 5A) was 6.20.

Source: PMC12645437, “Orthogonal IMiD-Degron Pairs Induce Selective Protein Degradation in Cells” (ACS Chemical Biology, 2025)
